Assay [1] deals with U2OS cells stably expressing GFP-LC3. Kind of assay: Autophagy in cultured cells: GFP-LC3 puncta formation and LC3 lipidation with or without bafilomycin A1. In kind it is cell-based, human. To be noted: for autophagic flux (GFP-LC3 puncta formation, LC3 lipidation): cells kept in rich medium, presence and absence of BafA1; for statin-induced autophagy upon supplementation: 12 hours, Simvastatin and Mevastatin. As to the method:
U2OS, HeLa or H4 cells stably expressing GFP-LC3 were seeded in 96-well imaging plates (BD Falcon, Sparks, USA) 24 h before stimulation. Cells were treated with the indicated agents for 4 h. […] Images were analyzed for the presence of GFP-LC3 puncta in the cytoplasm by means of the BD Attovision software (BD Imaging Systems). Cell surfaces were segmented and divided into cytoplasmic and nuclear regions according to manufacturer standard proceedings. RB 2×2 and Marr-Hildreth algorithms were used to recognize cytoplasmic GFP-LC3 positive dots. Statistical analyses were implemented on the R software (http://www.r-project.org/). For quantitative analyses of protein acetylation, cell surfaces were segmented into cytoplasm and nuclei regions, and staining intensity of each individual cell was measured for statistical analysis.
Membranes were then sliced in different parts according to the molecular weight of the protein of interest to allow simultaneous detection of different antigens within the same experiment. Unspecific binding sites were saturated by incubating membranes for 1 h in 0.05% Tween 20 (v:v in TBS) supplemented with 5% non-fat powdered milk (w:v in TBS), followed by the overnight incubation with primary antibodies specific for acetylated-lysine, LC3, phospho-AMPK (Thr172), AMPK, phospho-ribosomal protein S6 kinase (Thr421/Ser424), ribosomal protein S6 kinase, or STQM/p62 (Santa Cruz Biotechnology). Development was performed with appropriate horseradish peroxidase (HRP)-labeled secondary antibodies (Southern Biotech, Birmingham, USA) plus the SuperSignal West Pico chemoluminescent substrate (Thermo Scientific-Pierce). An anti-glyceraldehyde-3-phosphate dehydrogenase antibody (Chemicon International, Temecula, USA) was used to control equal loading of lanes.
For immunoblotting, protein extracts obtained by cellular lysis via RIPA buffer were run on 4-12% Bis-Tris acrylamide (Invitrogen) and electrotransferred to […] PVDF membranes (Biorad, USA). Unspecific binding sites were saturated by incubating membranes for 1 h in 0.05% Tween 20 (v:v in TBS) supplemented with 5% non-fat powdered milk (w:v in TBS), followed by an overnight incubation with primary antibodies specific for, LC3, phospho-AMPK (Thr172), AMPK, phosphor-ACC (Ser79), ACC, phospho-ribosomal protein S6 kinase (Thr421/Ser424), ribosomal protein S6 kinase, or SQSTM/p62 (Abnova). Membranes were opportunely cut in order to allow simultaneous detection of different molecular weight proteins. Development was performed with horseradish peroxidase (HRP)-labeled secondary antibodies (Southern Biotech, Birmingham, USA) plus the SuperSignal West Pico chemo luminescent substrate (Thermo Scientific-Pierce). An anti-glyceraldehyde-3-phosphate dehydrogenase antibody (Abcam) and anti-Actin antibody (Abcam) were used to ensure equal loading of lanes. Quantification was performed by densitometry by means of Image J software.
U2OS and H4 cells stably expressing GFP-LC3 were seeded in 96-well or 384-well imaging plates (BD Falcon, Sparks, USA). 24 h before stimulation, ells were treated with the indicated agents for 6 hours in absence of lysososomal ATPase inhibitors and for 3 hours in presence of Bafilomycin A1. […] Images were analyzed for the detection of GFP-LC3 puncta in the cytoplasm by means of the BD Attovision software (BD Imaging Systems. Cellular regions of interest, cytoplasm and nucleus, were defined and segmented according to standard proceedings. RB 2×2 and Marr-Hildreth algorithms were employed to allow the detection of GFP LC3 puncta. Statistical analyses were conducted using the R and Prism softwares (http://www.r-project.org/). For quantitative analyses of protein acetylation, cell surfaces were segmented intocytoplasmic and nucleic regions, and staining intensity of each individual cell was measured for statistical analysis.

Another assay relates to MCA205 tumor. Kind of assay: Growth of transplantable tumors with chemotherapy. In kind it is in vivo, mice. The following applies: for tumor growth, combined with MTX: immunocompetent wild type mice, agent given before and with mitoxanthrone. As to the method:
C57BL/6 mice (Charles River Laboratory, Lentilly, France) were bred and maintained according to both the FELASA and the Animal Experimental Ethics Committee Guidelines (Val de Marne, France). Mice were housed in a temperature-controlled environment with 12 h light/dark cycles and received food and water ad libitum. For HC-related experiments, mice were injected intraperitoneally with a single 100 mg/kg dose and 6 h later were sacrificed and tissues were immediately frozen in liquid nitrogen. For DCA- and DMKG-related experiments, mice were subjected to 24 h starvation and injected intraperitoneally each 8 h with a 100 mg/kg of either DCA or DMKG solution prepared in PBS. After 24 h of starvation, mice were sacrificed and tissues were immediately frozen in liquid nitrogen after extraction and homogenized two cycles for 20 s at 5,500 rpm using Precellys 24 tissue homogenator (Bertin Technologies, Montigny-le-Bretonneux, France) in a 20 mM Tris buffer (pH 7.4) containing 150 mM NaCl, 1% Triton X-100, 10 mM EDTA and Complete® protease inhibitor cocktail (Roche Applied Science). Tissue extracts were then centrifuged at 12,000 g at 4° C. and supernatants were collected. Protein concentration in the supernatants was evaluated by the bicinchoninic acid technique (BCA protein assay kit, Pierce Biotechnology, Rockford, Ill.). For hydroxycitrate-related weight-loss experiments, autophagy-deficient Atg4b^−/− mice were used. Atg4b^−/− mice have been previously described (Mariño et al., 2010). For HC-, spermidine-, and resveratrol-related experiments (tumour growth) mice were intraperitoneally injected with respectively 100 mg/kg, 50 mg/kg and 100 mg/kg doses at day 8 and day 9. At day 9, mice were intraperitoneally injected with 2 mg/kg single dose of Mitoxanthrone. For starvation related experiment (tumour growth) mice were treated as previously described (Fabrizio et. al., 2010).
Six weeks old female C57BL/6, Balb/c and nude athymic mice (Harlan Laboratory, Gannat, France) were bred and maintained according to both the FELASA and the Animal Experimental Inserm Ethics Committee Guidelines (project: 2012-69). Mice were housed in a temperature-controlled environment with 12 h light/dark cycles and received food and water ad libitum. For tumor growth experiments, procedures adopted are described as follows: 3×10^5 tumor cells were subcutaneously inoculated; when tumors became palpable (day −1 before chemotherapy), mice were first intraperitoneally injected with 100 mg/kg Potassium Hydroxycitrate, 10 mg/kg Acetylsalicylic Acid, 30 mg/kg SB204990, 30 mg/kg c646, 5 mg/kg Rapamycin, 25 mg/kg Resveratrol, 50 mg/kg Spermidine. At day 0, mice were intraperitoneally injected with the abovementioned compounds and with 5.17 mg/Kg Mitoxanthrone or 5 mg/kg Oxaliplatin. Tumor size was measured every two days. For starvation experiments, mice underwent 48 hour fasting followed by intreperitoneal injection of chemotherapeutics. For autophagy induction study, 6 hours after CRMs administration, mice were sacrificed and tissues were snap-frozen in liquid nitrogen after extraction and homogenized two cycles for 20 s at 5,500 rpm using Precellys 24 tissue homogenator (Bertin Technologies, Montigny-le-Bretonneux, France) in a 20 mM Tris buffer (pH 7.4) containing 150 mM NaCl, 1% Triton X-100, 10 mM EDTA and Complete® protease inhibitor cocktail (Roche Applied Science, Penzberg, Germany). Tissue extracts were then centrifuged at 12,000 g at 4° C. and supernatants were collected. Protein concentration in the supernatants was evaluated by the bicinchoninic acid technique (BCA protein assay kit, Pierce Biotechnology, Rockford, US.

Another assay relates to AcCoA levels. Nature of the assay: Targeted analysis of AcCoA levels in cultured cells (HPLC-MS). It counts as cell-based, human. The following applies: cells kept in rich medium. As for the experimental part:
Cells were trypsinized, pelleted at 1000 rpm for 4 min, washed with PBS and pelleted again at 1000 rpm for 4 min. Cells were then resuspended in 5 ml of ice-cold hyposmotic buffer and keep on ice for 5 min. Cells were broken to release nuclei using a pre-chilled Dounce homogenizer (20 strokes with a tight pestle) and then were then centrifuged at 228 g.
For in vitro experiments, cell pellets were resuspended in 300 μL of water with HEPES and EDTA (pH 7.4) at 1 mM containing internal standard acetylcoenzyme A (2-C13) at 1 mg/L, vortexed and heated at 100° C. for 1 min. Samples were incubated in liquid nitrogen for 1 min and thawed at room temperature two times. They were let for 1 h at −20° C. and centrifuged at 4° C. during 15 min at 13,000 g. Supernatants were transferred in HPLC vials and injected in HPLC/MS or kept at −80° C. until injection. For in vivo experiments, frozen tissues were placed in ice-cold homogenization tubes containing ceramic beads. Five μL of ice-cold methanol/water (80/20; v/v) were added for 1 mg of tissue. Tissues were homogenized two times for 20 s at 5,500 rpm using Precellys 24 tissue homogenator (Bertin Technologies, Montigny-le-Bretonneux, France). Samples were placed 10 min on ice. Next they were centrifuged at 4° C. during 15 min at 13,000 g. Supernatants were transferred in HPLC vials and injected in HPLC-MS system or kept at −80° C. until injection.
Targeted analyses were performed on Rapid Resolution Liquid Chromatography (RRLC) 1200SL system (Agilent Technologies, Waldbronn, Germany) coupled to a Triple Quadruple QQQ 6410 mass spectrometer (Agilent Technologies). RRLC analysis was done on 150×2.1 mm, 3.5 μm Eclipse Plus SB-Aq column with a pre-column 30 mm×2.1 mm 3.5 μm Eclipse plus (Agilent Technologies) with water containing 10 mmol/L of ammonium acetate and 0.01% of acetic acid in channel A and acetonitrile in channel B in gradient mode at a flow rate of 0.3 mL·min^−1: t=0 min 2% B; t=9 min 95% B; t=11 min 95% B; re-equilibration time of 3 min. Mass spectrometer analysis was done in positive electrospray ionization mode at +4 kV on the QQQ system operating in MRM mode. MRM transitions were optimized with standard of AcCoA and AcCoA A 2-C^13 with direct infusion. Two transitions were recorded for each compound; • AcCoA 810>303 CE (collision energy) 28V; fragmentor 180V • 810>428 CE 20V • AcCoA 2-C13 812>305 CE 28V; fragmentor 180V • 812>428 CE 24V […]

Structures are written as SMILES.

With `O=C(O)C[C@]1(O)C[C@H](CCCCCCc2ccc(Cl)cc2Cl)OC1=O` (relative stereo) [SB-204990, (3R,5S)-rel-5-[6-(2,4-Dichlorophenyl)hexyl]tetrahydro-3-hydroxy-2-oxo-3-furanacetic acid], the “autophagic flux (GFP-LC3 puncta formation, LC3 lipidation)” value (from here on “autophagic flux”) in assay [1] is reported as “stimulated autophagic flux in cultured cancer cells”; in assay [1] (listed as SB204990), “induce autophagic flux”. In addition, the entries for the “tumor growth, combined with MTX” value in the assay with MCA205 tumor and with MCA205 tumor (listed as SB204990) were “HC could be replaced” and “can enhance chemotherapy efficacy”, respectively. Besides, the “tumor growth, combined with MTX, immunodeficient mice” value with MCA205 tumor (nu/nu (nude athymic) mice) is given as “failed”.
For the compound `CC1COC(=O)C1` (centres unmarked) [3-methylbutyrolactone], in assay [1], the “autophagic flux” value was “marked increase in GFP-LC3 puncta”.
For the compound `COc1ccc(-c2ccccc2)cc1NS(=O)(=O)c1cc(Cl)cc(Cl)c1O` [BMS-303141, 3 5-Dichloro-2-hydroxy-N-(4-methoxy[1,1′-biphenyl]-3-yl)-benzenesulfonamide], the “autophagic flux” value in assay [1] is reported as “stimulated autophagic flux in cultured cancer cells”; in assay [1] (listed as BMS303141) it was “induce autophagic flux”.
In the case of `C1CCC(C(CC2CCCCN2)C2CCCCC2)CC1` (centres unmarked) [PHX, perhexiline], the “autophagic flux” value in assay [1] is “induced signs of autophagy”. Besides, the AcCoA levels result in the assay on AcCoA levels is recorded as “reduced AcCoA cellular levels”.
Turning to `CCCCCCCCCCCCCCCc1cccc(O)c1C(=O)O` [anacardic acid, 6-pentadecylsalicylic acid], in assay [1], the “autophagic flux” value is reported as “marked increase in GFP-LC3 puncta”.
Still for that read-out and setting: under `COc1cc(/C=C/C(=O)CC(=O)/C=C/c2ccc(O)c(OC)c2)ccc1O` [curcumin] stands “marked increase in GFP-LC3 puncta”.
In the case of `CC(O)(CCO)CC(=O)O` (centres unmarked) [mevalonate], the results for the “statin-induced autophagy upon supplementation” value in assay [1] and in assay [1] (listed as Mevalonate) were “only suppresses statin-induced autophagy” and “reverts statins-induced”, respectively.
